In US20220388957A1, “COMPOUNDS AND COMPOSITIONS FOR TREATING CONDITIONS ASSOCIATED WITH STING ACTIVITY” (IFM Due, Inc., priority 2019, published 2022) one finds EC50 data, which are given here for seven molecules.

Usually EC50 stands for the midpoint of the concentration-response curve.

Structures are written as SMILES.

T1 sequence (Q86WV6 whole entry R71H/G230A/H232R/R293Q): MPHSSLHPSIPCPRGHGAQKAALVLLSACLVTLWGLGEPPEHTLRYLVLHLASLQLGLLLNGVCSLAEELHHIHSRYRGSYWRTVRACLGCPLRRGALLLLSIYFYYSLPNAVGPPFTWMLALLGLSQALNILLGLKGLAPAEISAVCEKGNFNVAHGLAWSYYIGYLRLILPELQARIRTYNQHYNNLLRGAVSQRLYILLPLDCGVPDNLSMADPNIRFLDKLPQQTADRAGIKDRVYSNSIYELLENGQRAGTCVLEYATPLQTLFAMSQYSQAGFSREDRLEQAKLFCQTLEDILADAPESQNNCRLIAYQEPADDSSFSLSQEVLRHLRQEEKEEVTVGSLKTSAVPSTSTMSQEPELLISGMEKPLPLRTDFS

The first experiment has as its target T1, Human STING (Homo sapiens, UniProt Q86WV6, G230A/H232R/R293Q/R71H).
T1 construct: host or cells: THP1-Dual KO-IFNAR2 cells (human monocytic reporter line)
Briefly: STING reporter assay (luciferase) in THP1-Dual KO-IFNAR2 cells stimulated with 2′3′cGAMP. The experiment is classed as cell-based. To be noted: 2′3′cGAMP 15 μM, 24 h, class symbols. As for the experimental part: STING pathway activation by the compounds described herein was measured using THP1-Dual™ cells (KO-IFNAR2).
THP1-Dual™ KO-IFNAR2 Cells (obtained from invivogen) were maintained in RPMI, 10% FCS, 5 ml P/S, 2 mM L-glut, 10 mM Hepes, and 1 mM sodium pyruvate. Compounds were spotted in empty 384 well tissue culture plates (Greiner 781182) by Echo for a final concentration of 0.0017-100 μM. Cells were plated into the TC plates at […], 2×10E6 cells/mL. For activation with STING ligand, 2′3′cGAMP (MW 718.38, obtained from Invivogen), was prepared in Optimem media.
The following solutions were prepared for each 1×384 plate: • o Solution A: 2 mL Optimem with one of the following stimuli: • 60 uL of 10 mM 2′3′cGAMP->150 μM stock • Solution B: 2 mL Optimem with 60 μL Lipofectamine 2000->Incubate 5 min at RT
2 mL of solution A and 2 ml Solution B was mixed and incubated for 20 min at room temperature (RT). 20 μL of transfection solution (A+B) was added on top of the plated cells, with a final 2′3′cGAMP concentration of 15 μM. The plates were then centrifuged immediately at 340 g for 1 minute, after which they were incubated at 37° C., 5% CO2, >98% humidity for 24 h. Luciferase reporter activity was then measured. EC50 values were calculated by using standard methods known in the art.
Luciferase reporter assay: 10 μL of supernatant from the assay was transferred to white 384-plate with flat bottom and squared wells. One pouch of QUANTI-Luc™ Plus was dissolved in 25 mL of water. 100 μL of QLC Stabilizer per 25 mL of QUANTI-Luc™ Plus solution was added. 50 μL of QUANTI-Luc™ Plus/QLC solution per well was then added. Luminescence was measured on a Platereader (e.g., Spectramax I3X (Molecular Devices GF3637001)).
Luciferase reporter activity was then measured. EC50 values were calculated by using standard methods known in the art.
Background: Reporter assays use an easily measured gene product as a stand-in for the process of interest.
For `O=S(=O)(Nc1c[nH]nc1-c1ccccc1)c1ccc(C(F)(F)F)cc1` [Compound 106], the EC50 fell in the range of 5 to 100 µM.
The same measure, in the same setting: the same measure for `CCCCCCCCS(=O)(=O)Nc1c[nH]c2cc(F)c(F)cc12` [Compound 128, N-(5,6-difluoro-1H-indol-3-yl)octane-1-sulfonamide]: 1 to 5 µM; for `O=S(=O)(Cc1cccc(C(F)(F)F)c1)Nc1c[nH]c2cc(F)c(F)cc12` [Compound 131, N-(5,6-difluoro-1H-indol-3-yl)-1-(3-(trifluoromethyl)phenyl) methanesulfonamide]: 5 to 100 µM.
Same read-out and setting: the same measure for `O=S(=O)(Nc1c[nH]c2cc(F)c(F)cc12)c1ccc2c(c1)CCC2` [Compound 135, N-(5,6-difluoro-1H-indol-3-yl)-2,3-dihydro-1H-indene-5-sulfonamide]: 5 to 100 µM; for `O=S(=O)(Nc1c[nH]c2cc(F)c(F)cc12)c1ccc2c(c1)CCCC2` [Compound 139, N-(5,6-difluoro-1H-indol-3-yl)-5,6,7,8-tetrahydro-naphthalene-2-sulfonamide]: 5 to 100 µM.
In the case of `CC(C)c1ccc(S(=O)(=O)Nc2c[nH]c3cc(F)c(F)cc23)cc1` [Compound 141, N-(5,6-difluoro-1H-indol-3-yl)-4-isopropylbenzene-sulfonamide], the concentration giving a half-maximal response (EC50) is 5 to 100 µM.

Staying with this experiment, now noted: 2′3′cGAMP 15 μM, 24 h, numeric bound.
`CC1CNCCC1NS(=O)(=O)c1c[nH]c2nccc(Cl)c12` (stereo not shown) [Compound 112]: the half-maximal effective concentration (EC50) is more than 100 µM.
